Measured values published in patent publication USRE48461E1, “Modulation of androgen receptor expression” (Ionis Pharmaceuticals, Inc., priority 2012, dated 2021).
Oligonucleotides are written 5' to 3', each unit as a sugar letter and its base; * is a phosphorothioate linkage, no mark a phosphodiester; rarer units and linkages stand in square brackets, end groups in braces. Plain capitals give the bases only. k = constrained ethyl (cEt); d = 2'-deoxy (DNA)

Assays:
Type in all cases: cell-based, human
KLK2 mRNA = KLK2 mRNA (AR target gene) in C4-2B MR cells
[1] = system: prostate-specific antigen (PSA) mRNA; assay: PSA mRNA levels in LMR20 cells; conditions: for PSA mRNA levels (% baseline value) after treatment with DHT / PSA mRNA levels (% baseline value) after treatment with R1881 / PSA mRNA levels (% baseline value) of cells without AR agonist treatment: LMR20 cells; for PSA mRNA levels (% baseline value) after treatment with DHT: DHT 10 nM 72 hrs; for PSA mRNA levels (% baseline value) after treatment with R1881: R1881 10 nM 72 hrs; for PSA mRNA levels (% baseline value) of cells without AR agonist treatment: no AR agonist
Procedure: LMR20 cells were plated at 1,500 cells per well in phenol red-free medium with CSS. […] Results are presented in Tables 43-45 as mRNA levels expressed as a percentage of the baseline values. mRNA levels may be lowered or increased after treatment.

AR mRNA = AR mRNA levels in LMR20 cells (with/without DHT or R1881); conditions: for AR mRNA levels (% baseline value) after treatment with DHT / AR mRNA levels (% baseline value) after treatment with R1881 / AR mRNA levels (% baseline value) of cells without AR agonist treatment: LMR20 cells; for AR mRNA levels (% baseline value) after treatment with DHT: DHT 10 nM 72 hrs; for AR mRNA levels (% baseline value) after treatment with R1881: R1881 10 nM 72 hrs; for AR mRNA levels (% baseline value) of cells without AR agonist treatment: no AR agonist
Procedure: LMR20 cells were plated at 1,500 cells per well in phenol red-free medium with CSS.

KLK3 mRNA = KLK3 mRNA (AR target gene) in C4-2B MR cells
LMR20 cells = assay: Proliferation of MDV3100-resistant LMR20 cells (MTT; with R1881 or DHT); conditions: 5 days
How it was run: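 Cells were held in phenol red-free medium with charcoal-stripped FBS and given antisense oligonucleotides plus 1 nM R1881 or 10 nM DHT from day 1. Proliferation was read by MTT after 5 days of treatment and reported as percent inhibition against non-treated cells.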

549458 (kG*kT*kT*dG*dA*dT*dT*dT*dA*dA*dT*dG*dG*kT*kT*kG) [compound 549458]
Percent inhibition of KLK2 mRNA in C4-2B MR cells (KLK2 mRNA; 0.04 μM): 35%
Percent inhibition of KLK2 mRNA in C4-2B MR cells (KLK2 mRNA; 0.20 μM): 47%
Percent inhibition of KLK2 mRNA in C4-2B MR cells (KLK2 mRNA; 1.00 μM): 87%
Percent inhibition of KLK2 mRNA in C4-2B MR cells (KLK2 mRNA; 5.00 μM): 93%
PSA mRNA levels (% baseline value) after treatment with DHT ([1]; ASO 0.04 μM): 93 % baseline value
PSA mRNA levels (% baseline value) after treatment with DHT ([1]; ASO 0.20 μM): 71 % baseline value
PSA mRNA levels (% baseline value) after treatment with DHT ([1]; ASO 1.0 μM): 47 % baseline value
PSA mRNA levels (% baseline value) after treatment with DHT ([1]; ASO 5.0 μM): 47 % baseline value
PSA mRNA levels (% baseline value) after treatment with R1881 ([1]; ASO 0.04 μM): 93 % baseline value
PSA mRNA levels (% baseline value) after treatment with R1881 ([1]; ASO 0.20 μM): 67 % baseline value
PSA mRNA levels (% baseline value) after treatment with R1881 ([1]; ASO 1.0 μM): 50 % baseline value
PSA mRNA levels (% baseline value) after treatment with R1881 ([1]; ASO 5.0 μM): 44 % baseline value
PSA mRNA levels (% baseline value) of cells without AR agonist treatment ([1]; ASO 0.04 μM): 135 % baseline value
PSA mRNA levels (% baseline value) of cells without AR agonist treatment ([1]; ASO 0.20 μM): 85 % baseline value
PSA mRNA levels (% baseline value) of cells without AR agonist treatment ([1]; ASO 1.0 μM): 50 % baseline value
PSA mRNA levels (% baseline value) of cells without AR agonist treatment ([1]; ASO 5.0 μM): 72 % baseline value
AR mRNA levels (% baseline value) after treatment with DHT (AR mRNA; ASO 0.04 μM): 91 % baseline value
AR mRNA levels (% baseline value) after treatment with DHT (AR mRNA; ASO 0.20 μM): 66 % baseline value
AR mRNA levels (% baseline value) after treatment with DHT (AR mRNA; ASO 1.0 μM): 34 % baseline value
AR mRNA levels (% baseline value) after treatment with DHT (AR mRNA; ASO 5.0 μM): 31 % baseline value
AR mRNA levels (% baseline value) after treatment with R1881 (AR mRNA; ASO 0.04 μM): 88 % baseline value
AR mRNA levels (% baseline value) after treatment with R1881 (AR mRNA; ASO 0.20 μM): 56 % baseline value
AR mRNA levels (% baseline value) after treatment with R1881 (AR mRNA; ASO 1.0 μM): 25 % baseline value
AR mRNA levels (% baseline value) after treatment with R1881 (AR mRNA; ASO 5.0 μM): 32 % baseline value
AR mRNA levels (% baseline value) of cells without AR agonist treatment (AR mRNA; ASO 0.04 μM): 101 % baseline value
AR mRNA levels (% baseline value) of cells without AR agonist treatment (AR mRNA; ASO 0.20 μM): 75 % baseline value
AR mRNA levels (% baseline value) of cells without AR agonist treatment (AR mRNA; ASO 1.0 μM): 30 % baseline value
AR mRNA levels (% baseline value) of cells without AR agonist treatment (AR mRNA; ASO 5.0 μM): 25 % baseline value
Percent inhibition of KLK3 mRNA in C4-2B MR cells (KLK3 mRNA; 0.04 μM): 0%
Percent inhibition of KLK3 mRNA in C4-2B MR cells (KLK3 mRNA; 0.20 μM): 42%
Percent inhibition of KLK3 mRNA in C4-2B MR cells (KLK3 mRNA; 1.00 μM): 81%
Percent inhibition of KLK3 mRNA in C4-2B MR cells (KLK3 mRNA; 5.00 μM): 92%

GTTGATTTAATGGTTG (all phosphorothioate, sugars by position not given here; further chemistry not fully specified) [ISIS 549458]
AR target gene KLK2 mRNA levels (KLK2 mRNA; C4-2B MR cells, 0.04-5.00 μM): reduced target gene levels in a dose dependent manner more extensively than treatment with ISIS 554221
PSA mRNA levels in LMR20 cells ([1]; with or without DHT/R1881): reduced PSA levels and TMPRSS2 more extensively than the LNA gapmer ISIS 554221 or MDV3100
AR mRNA levels in LMR20 cells (AR mRNA; with or without DHT/R1881): reduced AR mRNA levels in LMR20 cells, treated with or without either AR agonist, in a dose dependent manner relative to the baseline
AR target gene KLK3 mRNA levels (KLK3 mRNA; C4-2B MR cells, 0.04-5.00 μM): reduced target gene levels in a dose dependent manner more extensively than treatment with ISIS 554221
Percent inhibition of LMR20 cell proliferation (LMR20 cells; CSS + DHT, ASO 0.04 μM): 0%
Percent inhibition of LMR20 cell proliferation (LMR20 cells; CSS + DHT, ASO 0.20 μM): 25%
Percent inhibition of LMR20 cell proliferation (LMR20 cells; CSS + DHT, ASO 1.0 μM): 60%
Percent inhibition of LMR20 cell proliferation (LMR20 cells; CSS + DHT, ASO 5.0 μM): 70%
Percent inhibition of LMR20 cell proliferation (LMR20 cells; CSS + R1881, ASO 0.04 μM): 0%
Percent inhibition of LMR20 cell proliferation (LMR20 cells; CSS + R1881, ASO 0.20 μM): 22%
Percent inhibition of LMR20 cell proliferation (LMR20 cells; CSS + R1881, ASO 1.0 μM): 59%
Percent inhibition of LMR20 cell proliferation (LMR20 cells; CSS + R1881, ASO 5.0 μM): 74%
Percent inhibition of LMR20 cell proliferation (LMR20 cells; CSS, ASO 0.04 μM): 0%
Percent inhibition of LMR20 cell proliferation (LMR20 cells; CSS, ASO 0.20 μM): 0%
Percent inhibition of LMR20 cell proliferation (LMR20 cells; CSS, ASO 1.0 μM): 0%
Percent inhibition of LMR20 cell proliferation (LMR20 cells; CSS, ASO 5.0 μM): 5%
LMR20 cell proliferation (LMR20 cells; in the presence of R1881 or DHT, 0.04-5.0 μM): significantly inhibited MDV3100-resistant prostate cancer cell proliferation in a dose dependent manner more extensively than ISIS 554221
